Experimental findings from patent US20260200925A1, “SMALL MOLECULE INHIBITORS OF KRAS MUTATED PROTEINS” (MERCK SHARP & DOHME LLC, priority 2021, published 2026) are described below.

For one assay, the target named is G13D (Homo sapiens, UniProt P01116, G13D). Put plainly: Guanine nucleotide exchange (GNE) assay, G13D. In kind it is biochemical.
Assay [1] relates to AsPC-1 cells containing homozygous KRAS-G12D activating mutation (p-ERK). The conditions noted are these: Homo sapiens, ASPC1, 2 h, read-out: KRAS G12D ASPC-1 IC50 (nM).
Experimental: Procedure for Cellular Phospho-ERK Assay, G12D
AsPC-1 cells (ATCC® CRL-1682™), containing homozygous KRAS-G12D activating mutation, were cultured in T150 flask in growth medium (RPMI medium 1640-GlutaMAX™—I (ThermoFisher Scientific 61870) containing 10% fetal bovine serum (ThermoFisher Scientific 10091148)). The cells were harvested in growth medium after TrypLE (ThermoFisher scientific 12604021) digestion and were seeded in a 384-well collagen coated cell culture plate (Corning 356702) at a density of 15,000 cells/well, and incubated at 37° C., 5% CO2 overnight. […] RPMI medium 1640-GlutaMAX™—I was added to the intermediate plate and the contents of the intermediate plate were then transferred to the 384-well collagen coated cell culture plate, which was incubated at 37° C., 5% CO2 for 2 hours. After removal of medium from the collagen coated cell culture plate, cells were lysed in lysis buffer from Alpha SureFire® Ultra™ Multiplex p-ERK and total ERK assay kit (PerkinElmer MPSU-PTERK) containing Halt™ Protease and Phosphatase inhibitor cocktail (ThermoFisher Scientific 78446) at room temperature with constant shaking at 300 rpm for 30 minutes. The cell lysates were then transferred to an OptiPlate-384 plate (PerkinElmer 6005620), and the phosphorylation of ERK (p-ERK) and total ERK levels were detected by Alpha SureFire® Ultra™ Multiplex p-ERK kit and total ERK assay kit (PerkinElmer MPSU-PTERK) following the manufacturer's protocol. Assay plates were read on a EnVision Multimode Plate Reader (PerkinElmer), and the ratio of p-ERK vs. total ERK in each well was used as the final readout. Dose response curves were analyzed using a 4-parameter logistic model to calculate IC50 values using Spotfire software.
The target in assay [2] is Recombinant KRAS-G12D (SEQ ID NO: 2) (Homo sapiens, UniProt P01116, G12D). Put plainly: SOS-catalyzed guanine nucleotide exchange (GNE) assay, KRAS-G12D.
Experimental: (§1) Specifically, the SOS-catalyzed nucleotide exchange assay utilizes a preformed time-resolved fluorescence resonance energy transfer (TR-FRET) complex containing a specific biotinylated RAS protein (KRAS-G12C/V/D, HRAS, NRAS; described above) with BODIPY-GDP, and Terbium-streptavidin. Test compounds are preincubated with this complex for 60 minutes.
(§2) To assemble the preformed TR-FRET complexes, each biotinylated RAS protein is diluted to 2 μM in an EDTA Buffer (20 mM HEPES, 50 mM sodium chloride, 10 mM EDTA, and 0.01% Tween) and incubated at room temperature for one hour. This mixture is then further diluted to 90 nM in an Assay Buffer (20 mM HEPES, 150 mM sodium chloride, 10 mM magnesium chloride, and 0.005% Tween) containing 15 nM of Terbium-Streptavidin (Invitrogen, catalog #PV3577) and 900 nM of BODIPY-GDP (Invitrogen, catalog #G22360) and incubated at room temperature for six hours. It should be noted that this preformed TR-FRET complex for each of the RAS proteins was made ahead of time, aliquoted and stored at −80° C. until the day of the experiment.
(§3) Once titrations are made, 10 nL of the diluted compounds is acoustically dispensed into a 384-well assay plate (Corning, catalog #3820) using an Echo 550 (Labcyte). Each well of the assay plate subsequently receives 3 μL of a specific 3× RAS preformed TR-FRET complex and 3 μL of Assay Buffer and is incubated at room temperature for 60 minutes (preincubation time). […] The final reaction in each well of 9 μL consists of 3 mM GTP, and the specific RAS and SOS proteins in the following concentrations: KRAS-G12C/SOS=3 nM/40 nM, KRAS-G12D/SOS=1 nM/40 nM, KRAS-G12V/SOS=1.25 nM/160 nM, HRAS/SOS=1.25 nM/40 nM, and NRAS/SOS=1.25 nM/40 nM.
(§4) The TR-FRET signal is measured on an Envision (PerkinElmer) plate reader: Excitation filter=340 nm; emission 1=495 nm; emission 2=520 nm; dichroic mirror=D400/D505; delay time=100 ms. The signal of each well is determined as the ratio of the emission at 520 nm to that at 495 nm. […] The apparent effect as a function of compound concentration is fit to a four-parameter logistic equation to calculate IC50 values using Spotfire software.
For assay [3], the target named is Recombinant KRAS-G12V (SEQ ID NO: 3) (Homo sapiens, UniProt P01116, G12V). The assay can be described thus: SOS-catalyzed guanine nucleotide exchange (GNE) assay, KRAS-G12V.
Experimental: as §1, §2, §3, §4
The subject of assay [4] is NCI-H358 cells containing homozygous KRAS-G12C activating mutation (p-ERK). The conditions noted are these: Homo sapiens, NCI-H358, 2 h, read-out: G12C H358 IC50 (nM).
Experimental: Procedure for Cellular Phospho-ERK Assay, G12C
NCI-H358 cells (ATCC® CRL-5807™), containing homozygous KRAS-G12C activating mutation, were cultured in T150 flask in growth medium (RPMI medium 1640-GlutaMAX™—I (ThermoFisher Scientific 61870) containing 10% fetal bovine serum (ThermoFisher Scientific 10091148)). The cells were harvested in growth medium after TrypLE (ThermoFisher scientific 12604021) digestion and were seeded in a 384-well collagen coated cell culture plate (Corning 356702) at a density of 15,000 cells/well, and incubated at 37° C., 5% CO2 overnight. […] RPMI medium 1640-GlutaMAX™—I was added to the intermediate plate and the contents of the intermediate plate were then transferred to the 384-well collagen coated cell culture plate, which was incubated at 37° C., 5% CO2 for 2 hours. After removal of medium from the collagen coated cell culture plate, cells were lysed in lysis buffer from Alpha SureFire® Ultra™ Multiplex p-ERK and total ERK assay kit (PerkinElmer MPSU-PTERK) containing Halt™ Protease and Phosphatase inhibitor cocktail (ThermoFisher Scientific 78446) at room temperature with constant shaking at 300 rpm for 30 minutes. The cell lysates were then transferred to an OptiPlate-384 plate (PerkinElmer 6005620), and the phosphorylation of ERK (p-ERK) and total ERK levels were detected by Alpha SureFire® Ultra™ Multiplex p-ERK kit and total ERK assay kit (PerkinElmer MPSU-PTERK) following the manufacturer's protocol. Assay plates were read on an EnVision Multimode Plate Reader (PerkinElmer), and the ratio of p-ERK vs. total ERK in each well was used as the final readout. Dose response curves were analyzed using a 4-parameter logistic model to calculate IC50 values using Spotfire software.

In general, pIC50 refers to the negative decadic logarithm of the IC50, by convention in mol/L. The term IC50 denotes the concentration that gives 50% inhibition.

Structures are written as SMILES. pIC50: −log10 of the molar value. Structures can show the parent of a compound that is named as a salt.

Chain of G13D (P01116 1-188 isoform P01116-2 G13D): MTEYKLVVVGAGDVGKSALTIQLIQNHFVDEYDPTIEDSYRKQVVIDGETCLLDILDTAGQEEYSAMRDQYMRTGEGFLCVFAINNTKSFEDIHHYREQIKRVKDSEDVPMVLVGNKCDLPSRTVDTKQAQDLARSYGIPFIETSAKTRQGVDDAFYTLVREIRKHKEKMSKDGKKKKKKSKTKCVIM
Chain of Recombinant KRAS-G12V (SEQ ID NO: 3) (P01116 with tags, fused parts or gaps isoform P01116-2 G12V): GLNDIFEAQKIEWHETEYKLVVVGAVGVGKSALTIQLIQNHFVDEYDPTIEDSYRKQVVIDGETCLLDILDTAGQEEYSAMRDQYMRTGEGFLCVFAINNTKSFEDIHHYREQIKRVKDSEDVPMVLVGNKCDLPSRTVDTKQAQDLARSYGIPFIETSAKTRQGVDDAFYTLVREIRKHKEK
Chain of Recombinant KRAS-G12D (SEQ ID NO: 2) (P01116 with tags, fused parts or gaps isoform P01116-2 G12D): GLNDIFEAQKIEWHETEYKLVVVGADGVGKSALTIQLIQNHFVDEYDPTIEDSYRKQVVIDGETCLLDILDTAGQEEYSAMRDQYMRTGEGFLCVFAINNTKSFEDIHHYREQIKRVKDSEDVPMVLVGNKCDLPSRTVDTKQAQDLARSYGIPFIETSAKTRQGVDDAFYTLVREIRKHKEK
Experimental for G13D: as §4

For the compound `CN(C)CC1(COc2nc(N3CCC[C@@](C)(O)C3)c3cnc(-c4cc(O)cc5cccc(Cl)c45)c(F)c3n2)CC1` [Ex-20, (R)-1-(7-(8-chloro-3-hydroxynaphthalen-1-yl)-2-((1-((dimethylamino)methyl)cyclopropyl)methoxy)-8-fluoropyrido[4,3-d]pyrimidin-4-yl)-3-methylpiperidin-3-ol], the negative logarithm of the IC50 (pIC50) against G13D is 8.22; in assay [2] it was 8.40; in assay [3], 8.22. Also, the IC50 in assay [1] amounted to 1180 nM.
For `C#Cc1cccc2cc(O)cc(-c3c(F)cc4c(N5CCC[C@@](C)(O)C5)nc(OCC5(CN6CC[C@@H](F)C6)CC5)nc4c3F)c12` [Ex-12, (3R)-1-(7-(8-ethyny1-3-hydroxynaphthalen-1-yl)-6,8-difluoro-2-((1-(((R)-3-fluoropyrrolidin-1-yl)methyl)cyclopropyl)meth-oxy)quinazolin-4-yl)-3-methylpiperidin-3-ol], the IC50 was found to be 86 nM in assay [1] and 41 nM in assay [4].
Take `Nc1nc2c(-c3c(Cl)cc4c(N5CCCC(O)CC5)nc(OC[C@@]56CCCN5C[C@H](F)C6)nc4c3F)c(F)cc(F)c2o1` (stereo partly drawn) [Ex-25, 1-(7-(2-amino-5,7-difluorobenzo[d]oxazol-4-yl)-6-chloro-8-fluoro-2-(((2R,7aS)-2-fluorotetrahydro-1H-pyrrolizin-7a(5H)-yl)methoxy)quinazolin-4-yl)azepan-4-ol]: the figures for the IC50 in assay [1] and in assay [4] were 1400 nM and 611 nM, respectively.
The corresponding values for `C#Cc1cccc2cc(O)cc(-c3c(F)cc4c(N5CCC[C@@](C)(O)C5)nc(OC[C@]5(CO)CC5(F)F)nc4c3F)c12` [Ex-44, (3R)-1-(2-(((R)-2,2-difluoro-1-(hydroxy-methyl)cyclopropyl)methoxy)-7-(8-ethynyl-3-hydroxynaphthalen-1-yl)-6,8-difluoroquinazolin-4-yl)-3-methylpiperidin-3-ol] are 142 nM and 59 nM.
On to `Oc1cc(-c2c(F)cc3c(N4CCC[C@@H](O)C4)nc(OC[C@@]45CCCN4C[C@H](F)C5)nc3c2F)c2c(Cl)cccc2c1` [Ex-27, (3R)-1-(7-(8-chloro-3-hydroxynaphthalen-1-yl)-6,8-difluoro-2-(((2R,7aS)-2-fluorotetrahydro-1H-pyrrolizin-7a(5H)-yl)methoxy)quinazolin-4-yl)piperidin-3-ol], for which, in assay [1], the IC50 is 3840 nM.
Same read-out and setting: next, `COC1CCN(CC2(COc3nc(N4CCC[C@@](C)(O)C4)c4cc(F)c(-c5cc(O)cc6cccc(Cl)c56)c(F)c4n3)CC2)CC1` [Ex-5, (3R)-1-(7-(8-chloro-3-hydroxnagphthalen-1-yl)-6,8-difluoro-2-((1-((4-methoxypiperidin-1-yl)methyl)cyclopropyl)methoxy)quinazolin-4-yl)-3-methylpiperidin-3-ol]: 1150 nM.
Turning to `C#Cc1cccc2cc(O)cc(-c3cnc4c(N5CCC[C@@](C)(O)C5)nc(OCC5(CN(C)C)CC5)nc4c3)c12` [Ex-19, (R)-1-(2-((1-((dimethylamino)methyl)cyclopropyl)methoxy)-7-(8-ethynyl-3-hydroxynaphthalen-1-yl)pyrido[3,2-d]pyrimidine-4-yl)-3-methylpiperidin-3-ol], the pIC50 is 6.89 at G13D, 7.04 in assay [2] and 7.33 in assay [3]. The IC50 in assay [1] was 3340 nM.
On to `C#Cc1cccc2cc(O)cc(-c3c(F)cc4c(N5CCC[C@@](C)(O)C5)nc(OCC5(CN(C)C)CC5)nc4c3F)c12` (single isomer, unassigned) [Ex-11], for which the pIC50 at G13D was 8.70; in assay [2], 9.00; in assay [3], 8.70. Also, the IC50 in assay [1] worked out at 132 nM.
In the case of `CC1CN(c2nc(OC[C@@]34CCCN3C[C@H](F)C4)nc3c(F)c(-c4cc(O)cc5cccc(Cl)c45)c(F)cc23)CC(C)(O)C1` (single isomer, unassigned) [Ex-33], the negative logarithm of the IC50 (pIC50) against G13D is 7.07; in assay [2], 6.79; in assay [3], 6.84.
`Oc1cc(-c2c(F)cc3c(N4CCC[C@H](O)CC4)nc(OC[C@@]45CCCN4C[C@H](F)C5)nc3c2F)c2c(Cl)cccc2c1` [Ex-35, (4S)-1-(7-(8-chloro-3-hydroxynaphthalen-1-yl)-6,8-difluoro-2-(((2R,7aS)-2-fluorotetrahydro-1H-pyrrolizin-7a(5H)-yl)methoxy)quinazolin-4-yl)azepan-4-ol]: the IC50 was determined as 4840 nM in assay [1] and 1820 nM in assay [4].
Consider `Cc1cc2[nH]ncc2c(-c2c(F)cc3c(N4CCC[C@@](C)(O)C4)nc(OCC4(CN5CC[C@@H](F)C5)CC4)nc3c2F)c1C` [Ex-39, (3R)-1-(7-(5,6-dimethy1-1H-indazol-4-yl)-6,8-difluoro-2-((1-(((R)-3-fluoropyrrolidin-1-yl)methyl)cyclopropyl)methoxy)quinazolin-4-yl)-3-methylpiperidin-3-ol], for which the pIC50 on G13D is 5.57; in assay [2], 5.57; in assay [3], 5.64.
For `C[C@@]1(O)CCCN(c2nc(OC[C@]3(CO)CC3(F)F)nc3c(F)c(-c4cc(O)cc5cccc(Cl)c45)c(F)cc23)C1` [Ex-30, (3R)-1-(7-(8-chloro-3-hydroxynaphthalen-1-yl)-2-(((R)-2,2-difluoro-1-(hydroxymethyl)cyclo-propyl)methoxy)-6,8-difluoroquinazolin-4-yl)-3-methylpiperidin-3-ol], the IC50 in assay [1] worked out at 3150 nM; in assay [4], 512 nM.
Take `CN1CCC[C@H]1COc1nc(N2CCC[C@@](C)(O)C2)c2cc(F)c(-c3cc(O)cc4cccc(Cl)c34)c(F)c2n1` [Ex-49, (3R)-1-(7-(8-chloro-3-hydroxynaphthalen-1-yl)-6,8-difluoro-2-(((S)-1-methylpyrrolidin-2-yl)methoxy)quinazolin-4-yl)-3-methylpiperidin-3-ol trifluoracetate salt]: the IC50 in assay [1] came to 690 nM; in assay [4], 427 nM.
As for `C#Cc1cccc2cccc(-c3c(F)cc4c(N5CCC[C@](C)(O)C5)nc(OC[C@@]56CCCN5C[C@H](F)C6)nc4c3F)c12` (single isomer, unassigned) [Ex-46], the results for the pIC50 (against G13D; in assay [2]; in assay [3]) were 6.54, 6.01 and 6.77, respectively. Further, the IC50 in assay [1] was determined as 4690 nM.
For `C[C@@H]1C[C@@H](O)CN1c1nc(OC[C@@]23CCCN2C[C@H](F)C3)nc2c(F)c(-c3cc(O)cc4cccc(Cl)c34)c(F)cc12` [Ex-28, (3R,5R)-1-(7-(8-chloro-3-hydroxynaphthalen-1-yl)-6,8-difluoro-2-(((2R,7aS)-2-fluorotetrahydro-1H-pyrrolizin-7a(5H)-yl)methoxy)quinazolin-4-yl)-5-methylpyrrolidin-3-ol], the results for the half-maximal inhibitory concentration (IC50) in assay [1] and in assay [4] were 1220 nM and 2260 nM, respectively.
As to `C#Cc1cccc2cc(O)cc(-c3ccc4c(N5CCC[C@@](C)(O)C5)nc(OCC5(CN(C)C)CC5)nc4c3F)c12` [Ex-16, (R)-1-(2-((1-((dimethylamino)methyl)cyclopropyl)methoxy)-7-(8-ethynyl-3-hydroxynaphthalen-1-yl)-8-fluoroquinazolin-4-yl)-3-methylpiperidin-3-ol], the results for the IC50 in assay [1] and in assay [4] were 352 nM and 123 nM, respectively.
Consider `C#Cc1cccc2cc(O)cc(-c3ncc4c(N5CCC[C@@](C)(O)C5)nc(OCC5(CN(C)C)CC5)nc4c3F)c12` [Ex-21, (R)-1-(2-((1-((dimethylamino)methyl)cyclopropyl)methoxy)-7-(8-ethynyl-3-hydroxynaphthalen-1-yl)-8-fluoropyrido[4,3-d]pyrimidin-4-yl)-3-methylpiperidin-3-ol], for which the pIC50 (on G13D; in assay [2]; in assay [3]) was 9.00 in each case. The IC50 in assay [1] worked out at 329 nM.
`C#Cc1cccc2cc(O)cc(-c3c(F)cc4c(N5CCC[C@@](C)(O)C5)nc(OCC5(CN6CCC(OC)CC6)CC5)nc4c3F)c12` [Ex-7, (3R)-1-(7-(8-ethynyl-3-hydroxvnaphthalen-1-yl)-6,8-difluoro-2-((1-((4-methoxypiperidin-1-yl)methyl)cyclopropyl)methoxy)quinazolin-4-yl)-3-methylpiperidin-3-ol]: in assay [1], the IC50 is 95 nM.
For the compound `CN(C)C[C@@]1(COc2nc(N3CCC[C@@](C)(O)C3)c3cc(F)c(-c4cccc5ccc(F)c(Cl)c45)c(F)c3n2)CC1(F)F` [Ex-14, (3R)-1-(7-(8-chloro-7-fluoronaphthalen-1-yl)-2-(((R)-1-((dimethylamino)methyl)-2,2-difluorocyclopropyl)methoxy)-6,8-difluoroquinazolin-4-yl)-3-methylpiperidin-3-ol], the results for the negative logarithm of the IC50 (pIC50) (against G13D; in assay [2]; in assay [3]) were 5.28, 5.93 and 5.91, respectively.
As to `C[C@@]1(O)COCCN(c2nc(OC[C@@]34CCCN3C[C@H](F)C4)nc3c(F)c(-c4cc(O)cc5cccc(Cl)c45)c(F)cc23)C1` [Ex-37, (6S)-4-(7-(8-chloro-3-hydroxynaphthalen-1-yl)-6,8-difluoro-2-(((2R,7aS)-2-fluorotetrahydro-1H-pyrrolizin-7a(5H)-yl)methoxy)quinazolin-4-yl)-6-methyl-1,4-oxazepan-6-ol], the IC50 worked out at 151 nM in assay [1] and 48 nM in assay [4].
As to `C[C@@]1(O)CCCN(c2nc(OCC3(CN4CCC(F)CC4)CC3)nc3c(F)c(-c4cc(O)cc5cccc(Cl)c45)c(F)cc23)C1` [Ex-6, (3R)-1-(7-(8-chloro-3-hydroxynaphthalen-1-yl)-6,8-difluoro-2-((1-((4-fluoropiperidin-1-yl)methyl)cyclopropyl)methoxy)quin-azolin-4-yl)-3-methylpiperidin-3-ol], in assay [1], the IC50 worked out at 3050 nM.
